Measurements reported in patent US20170015654A1, “PYRIDAZINE COMPOUND” (TAKEDA PHARMACEUTICAL COMPANY LIMITED, priority 2014, published 2017).

How the values were obtained:
[1] = test system: human large intestine cancer cell line HCT116; assay: Antitumor effect on human large intestine cancer cell line HCT116 cancer-bearing mice; assay type: in vivo, mouse; conditions: 10 mg/kg, 2 doses per day, orally for 14 days; HCT116 cancer-bearing BALB/c nude mice; tumor growth vs control group
Procedure: The compound of the present invention was evaluated for its antitumor effect on human large intestine cancer cell line HCT116 cancer-bearing mice by the following method.
The human large intestine cancer cell line HCT116 (purchased from ATCC (American Type Culture Collection)) was transplanted to each 6-week-old BALB/c female nude mouse (BALB/cA Jcl nu/nu: CLEA Japan Inc.) by the subcutaneous injection of 1.0×10^6 cells. After the transplantation, successfully engrafted tumor was observed, and the tumor size was measured 10 to 14 days after the transplantation. The tumor volume was calculated according to the following expression:
Tumor volume=Major axis×Minor axis×Minor axis×(½)
Individuals in which the volume of the engrafted tumor reached approximately 150 mm^3 were selected and used in the experiment as groups each involving 5 to 8 individuals. Each test compound was suspended in a 0.5% methylcellulose solution and orally administered to each individual for 14 days using the dose and the number of doses shown in the table below. Finally, in order to measure drug effects, the tumor volume was calculated from the tumor sizes at the day before the start of the administration and at the final day of the administration, and tumor growth in the test compound administration group compared with a control administration group given only a 0.5% methylcellulose solution was calculated as T/C according to the following expression:
T/C (%)=(Tumor volume after the completion of the administration of the test compound administration group−Tumor volume at the day before the start of the administration of the test compound administration group)/(Tumor volume after the completion of the administration of the control administration group−Tumor volume at the day before the start of the administration of the control administration group)×100

SCD = biological target: T1, SCD (Rattus norvegicus, UniProt P07308); assay: Measurement of SCD inhibitory activity using microsome (TLC detection system); assay type: biochemical; conditions: 1 μM compound; rat liver microsome fraction; [14C]stearoyl-CoA; read-out: Rate of inhibition of SCD activity at compound concentration of 1 μM
T1 construct: the obtained precipitate other than the glycogen layer was used as the microsome fraction; from tissue; host or cells: rat liver microsome fraction
T1 sequence (P07308 1-358): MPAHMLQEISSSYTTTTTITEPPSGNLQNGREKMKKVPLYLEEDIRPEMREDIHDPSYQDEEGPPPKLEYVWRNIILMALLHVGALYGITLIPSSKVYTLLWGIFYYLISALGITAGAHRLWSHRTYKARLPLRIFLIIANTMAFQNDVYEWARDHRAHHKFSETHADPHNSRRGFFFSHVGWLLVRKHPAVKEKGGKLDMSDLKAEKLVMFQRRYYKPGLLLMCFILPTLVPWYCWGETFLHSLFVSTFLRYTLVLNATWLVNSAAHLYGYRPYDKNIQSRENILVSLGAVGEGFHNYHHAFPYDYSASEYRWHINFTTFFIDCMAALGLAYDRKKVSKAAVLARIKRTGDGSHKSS
Procedure: Testing Method: Measurement of SCD Inhibitory Activity Using Microsome (TLC Detection System)
A microsome fraction was produced and preserved as follows: first, the liver was excised from a rat, thoroughly washed with PBS and then chopped. A microsome preparation buffer (0.25 M sucrose, 10 mM Tris-HCl, pH 7.4, protease inhibitor cocktail (F. Hoffmann-La Roche, Ltd.)) was added to the chopped liver, and the cells were disrupted using a POLYTORON homogenizer on ice. The homogenate thus obtained by the disruption was centrifuged at 10,000×g at 4° C. for 30 minutes to collect a supernatant. The centrifugation operation described above was repeated again for the obtained supernatant to obtain a supernatant again. The obtained supernatant was centrifuged at 40,000×g at 4° C. for 60 minutes, and the obtained precipitate other than the glycogen layer was used as the microsome fraction. The protein concentration of the microsome fraction was measured using BCA Protein Assay Kit (Pierce/Thermo Fisher Scientific, Inc.), and the microsome fraction was cryopreserved at −80° C. until use.
The SCD inhibitory activity of each test compound was measured as follows: first, the test compound was diluted into 10 mM with DMSO to obtain a primary dilution. The obtained primary dilution was diluted 3/1000 by the addition of 3× buffer (300 mM potassium phosphate, pH 7.4, 450 mM KCl, 30 mM NaF, 9 mM MgCl2, 4.5 mM glutathione reduced form (Wako Pure Chemical Industries, Ltd.), 0.3% BSA fatty acid free (Sigma-Aldrich Corp.) to obtain a secondary dilution. The secondary dilution was dispensed at 10 μL/well to a polypropylene 96-deep well block. Then, the microsome fraction diluted using a microsome buffer (10 mM Tris-HCl, pH 7.5, 250 mM sucrose) was added thereto at 10 μL/well (containing 10 μg of the protein). An enzyme reaction solution containing [^14C]stearoyl-CoA (American Radiolabeled Chemicals, Inc.) diluted into […] using 9 mM NADH (Sigma-Aldrich Corp.) was further added thereto at 10 μL/well. 30 minutes thereafter, 2.5 N NaOH was added thereto at 10 μL/well. After the completion of the addition, the deep well block was provided with a plate seal and then left standing overnight in a heat sterilizer set to 55° C. Subsequently to the standing, fatty acid extraction from the sample was carried out in accordance with the Bligh & Dyer method. Specifically, 200 μL of a formic acid:methanol:chloroform (1:6:3) solution was added to the sample thus left standing, and then, the mixture was stirred while the single-layer state was maintained. Further, 120 μL of pure water was added to the mixture to separate it into two layers. After the separation, a 10 μL aliquot was separated from the lower layer, spotted on a reverse-phase TLC plate (RP-18, 1154230001, Merck KGaA), and developed with an acetonitrile:pure water:acetic acid (95:4.5:0.5) solution. After drying, the TLC plate was transferred to Imaging Plate (Fuji Photo Film) for 5 hours or longer. Detection was carried out using FLA7000 (GE Healthcare Japan Corp.), and the obtained spot images were digitalized using ImageQuant TL (GE Healthcare Japan Corp.) to determine the rate of inhibition of SCD activity (%).

| inhibition at 1 µM (SCD) | Structure (SMILES) | T/C (%) [1] |
| --- | --- | --- |
| 94% | COC1(c2ccc(S(F)(F)(F)(F)F)cc2)CCN(c2ccc(-c3nnc(CO)o3)nn2)CC1 [Example 93, (5-(6-(4-Methoxy-4-(4-(pentafluorosulfanyl)phenyl)piperidin-1-yl)pyridazin-3-yl)-1,3,4-oxadiazol-2-yl)methanol] | 58.1% |
| 96% | COC1(c2ccc(S(F)(F)(F)(F)F)cc2)CCN(c2ccc(-c3nnc(CO)s3)nn2)CC1 [Example 111, (5-(6-(4-Methoxy-4-(4-(pentafluorosulfanyl)phenyl)piperidin-1-yl)pyridazin-3-yl)-1,3,4-thiadiazol-2-yl)methanol] | – |
| 93% | N#CC1(c2ccc(S(F)(F)(F)(F)F)cc2)CCN(c2ccc(-c3nnc(CO)s3)nn2)CC1 [Example 109, 1-(6-(5-(Hydroxymethyl)-1,3,4-thiadiazol-2-yl)pyridazin-3-yl)-4-(4-(pentafluorosulfanyl)phenyl)piperidine-4-carbonitrile] | – |
| 94% | COC1(c2ccc(S(F)(F)(F)(F)F)cc2)CCN(c2ccc(-c3nc(CO)ns3)nn2)CC1 [Example 110, (5-(6-(4-Methoxy-4-(4-(pentafluorosulfanyl)phenyl)piperidin-1-yl)pyridazin-3-yl)-1,2,4-thiadiazol-3-yl)methanol] | 64.8% |
| 96% | OCc1nsc(-c2ccc(N3CCC(c4ccc(C(F)(F)F)cc4)(C(F)(F)F)CC3)nn2)n1 [Example 112, (5-(6-(4-(Trifluoromethyl)-4-(4-(trifluoromethyl)phenyl)piperidin-1-yl)pyridazin-3-yl)-1,2,4-thiadiazol-3-yl)methanol] | 53.7% |
| 95% | OCc1nnc(-c2ccc(N3CCC(c4ccc(C(F)(F)F)cc4)(C(F)(F)F)CC3)nn2)s1 [Example 113, (5-(6-(4-(Trifluoromethyl)-4-(4-(trifluoromethyl)phenyl)piperidin-1-yl)pyridazin-3-yl)-1,3,4-thiadiazol-2-yl)methanol] | 67.8% |
| 92% | N#CC1(c2ccc(S(F)(F)(F)(F)F)cc2)CCN(c2ccc(-c3nnc(CO)o3)nn2)CC1 [Example 58, 1-(6-(5-(Hydroxymethyl)-1,3,4-oxadiazol-2-yl)pyridazin-3-yl)-4-(4-(pentafluorosulfanyl)phenyl)piperidine-4-carbonitrile] | 86.2% |
| 95% | OCc1noc(-c2ccc(N3CCC(c4ccc(C(F)(F)F)cc4)(C(F)(F)F)CC3)nn2)n1 [Example 82, (5-(6-(4-(Trifluoromethyl)-4-(4-(trifluoromethyl)phenyl)piperidin-1-yl)pyridazin-3-yl)-1,2,4-oxadiazol-3-yl)methanol] | – |
| 93% | OCc1nnc(-c2ccc(N3CCC(c4ccc(C(F)(F)F)cc4)(C(F)(F)F)CC3)nn2)o1 [Example 84, (5-(6-(4-(Trifluoromethyl)-4-(4-(trifluoromethyl)phenyl)piperidin-1-yl)pyridazin-3-yl)-1,3,4-oxadiazol-2-yl)methanol] | 58.4% |
| 95% | N#CC1(c2ccc(S(F)(F)(F)(F)F)cc2)CCN(c2ccc(-c3nc(CO)ns3)nn2)CC1 [Example 108, 1-(6-(3-(Hydroxymethyl)-1,2,4-thiadiazol-5-yl)pyridazin-3-yl)-4-(4-(pentafluorosulfanyl)phenyl)piperidine-4-carbonitrile] | – |
